# Patent US3988450A, “Cephalosporins” (priority 1974, dated 1976)
# Where two headings read alike, the source gives them in different places.
# Experiments:
# [1] = Serum concentrations in mice after sub-cutaneous injection, microbiological assay; assay type: in vivo; settings: mouse, sc, 50 mg/kg sub-cutaneous, average, read-out: Serum concentrations at time after dosing; for concentration at 0.5 h: 30 min; for concentration at 1 h: 60 min
# Experimental: Each compound was injected sub-cutaneously into groups of mice at a dose of 50 mg/kg, and serum samples were taken at timed intervals thereafter and assayed microbiologically for their antibiotic content using the appropriate compound as standard.
# [2] = general knowledge; cited from earlier work
# Staph. aureus Oxford = assay: MIC on nutrient agar; assay type: cell-based; settings: Staphylococcus aureus
# Description: (§1) The minimum inhibitory concentrations of this compound required to inhibit the growth of various bacteria on nutrient agar are tabulated below: […]
# β-Haemolytic Strep. CN10 = assay: MIC on nutrient agar; assay type: cell-based
# Description: as §1
# Klebsiella aerogenes A = assay: MIC on nutrient agar; assay type: cell-based
# Description: as §1
# Proteus mirabilis C977 = assay: MIC on nutrient agar; assay type: cell-based
# Description: as §1
# E. coli JT1 = assay: MIC on nutrient agar; assay type: cell-based; settings: Escherichia coli
# Description: as §1
# B. subtilis = assay: MIC on nutrient agar; assay type: cell-based; settings: Bacillus subtilis
# Description: as §1
# P. mirabilis 889 = assay: MIC on nutrient agar; assay type: cell-based; settings: Proteus mirabilis; P. mirabilis 889, nutrient agar
# Description: as §1
# Shigella sonnei = assay: MIC on nutrient agar; assay type: cell-based
# Description: as §1
# Enterobacter cloacae N1 = assay: MIC on nutrient agar; assay type: cell-based
# Description: as §1
# Serratia marcescens US32 = assay: MIC on nutrient agar; assay type: cell-based
# Description: as §1
# Salmonella typhi = assay: MIC on nutrient agar; assay type: cell-based; settings: Salmonella enterica
# Description: as §1
# Staph. aureus Russell = assay: MIC on nutrient agar; assay type: cell-based; settings: Staphylococcus aureus
# P. morganii = assay: MIC on nutrient agar; assay type: cell-based; settings: Morganella morganii
# Description: as §1
# P. mirabilis 899 = assay: MIC on nutrient agar; assay type: cell-based; settings: Proteus mirabilis; P. mirabilis 899, nutrient agar
# [3] = E. coli JT1, nutrient agar, read-out: MIC
SMILES,MIC (Staph. aureus Oxford) [µg/mL],MIC (β-Haemolytic Strep. CN10) [µg/mL],MIC (Klebsiella aerogenes A) [µg/mL],MIC (Proteus mirabilis C977) [µg/mL],MIC (E. coli JT1; [3]) [µg/mL],MIC (B. subtilis) [µg/mL],MIC (Shigella sonnei) [µg/mL],MIC (Salmonella typhi) [µg/mL],MIC (Staph. aureus Russell) [µg/mL],further results
"Cc1nnc(SCC2=C(C(=O)O)N3C(=O)[C@@H](NC(=O)Cn4cnnn4)[C@H]3SC2)s1 [Cefazolin, reference compound]",,,,,,,,,,concentration at 10 min [1]: 45000 ng/mL; concentration at 20 min [1]: 37000 ng/mL; concentration at 0.5 h [1]: 21000 ng/mL; concentration at 1 h [1]: < 4000 ng/mL; concentration at 2 h [1]: < 4000 ng/mL; concentration at 4 h [1]: < 4000 ng/mL; duration of action (regarded as) [2]: relatively `long-acting` cephalosporin
"N[C@@H](C(=O)N[C@@H]1C(=O)N2C(C(=O)O)=C(Cc3ccccc3C(=O)O)CS[C@H]12)c1ccccc1 [LV, 3-(o-Carboxybenzyl)-7β-(D-α-phenylglycyl)aminoceph-3-em-4-carboxylic acid]",5,5,5,5,12.5,1.25,,,,MIC (P. mirabilis 889): 5 µg/mL
"CN(N=Cc1ccccc1)C(=O)N[C@@H](C(=O)N[C@@H]1C(=O)N2C(C(=O)O)=C(Cc3ccccc3C(=O)O)CS[C@H]12)c1ccccc1 [LVIII, 3-(o-Carboxybenzyl)-7β-[D-α-(3-benzylideneimino-3-methylureido)-phenylacetamido]-ceph-3-em-4-carboxylic acid]",8,0.2,,,8,,4,,,MIC (Enterobacter cloacae N1): 8 µg/mL
"CN(C(=O)C=Cc1ccccc1)C(=O)N[C@@H](C(=O)N[C@@H]1C(=O)N2C(C(=O)O)=C(Cc3ccccc3C(=O)O)CS[C@H]12)c1ccccc1 [LVIX, 3-(o-Carboxybenzyl)-7β-[D-α-(3-cinnamoul-3-methylureido)phenylacetamido]ceph-3-em-4-carboxylic acid]",4,0.25,,,,,4,,,MIC (Serratia marcescens US32): 4 µg/mL
"N[C@@H](C(=O)N[C@@H]1C(=O)N2C(C(=O)O)=C(Cc3ccc(C(=O)O)cc3)CS[C@H]12)c1ccccc1.O=C(O)C(F)(F)F [XIII, 3-(p-Carboxybenzyl)-7β-(D-α-phenylglycyl)amino-ceph-3-em-4-carboxylic acid trifluoroacetic acid salt]",0.5,0.5,,1.25,12.5,1.25,5,0.5,2.5,
"CN(N=Cc1ccccc1)C(=O)N[C@@H](C(=O)N[C@@H]1C(=O)N2C(C(=O)O)=C(Cc3ccc(C(=O)O)cc3)CS[C@H]12)c1ccccc1 [XIX, 3-(p-Carboxybenzyl)-7β-[D-α-(3-benzylideneimino-3-methylureido)phenylacetamido]ceph-3-em-4-carboxylic acid]",1.25,0.12,5,5,12.5,,2.5,5,,MIC (Enterobacter cloacae N1): 5 µg/mL; MIC (P. morganii): 12.5 µg/mL; MIC (Serratia marcescens US32): 12.5 µg/mL
"N[C@@H](C(=O)N[C@@H]1C(=O)N2C(C(=O)O)=C(Cc3cccc(C(=O)O)c3)CS[C@H]12)c1ccccc1 [XLI, 3-(m-Carboxybenzyl)-7β-(D-α-phenylglycyl)amino-ceph-3-em-4-carboxylic acid]",0.25,0.12,2.5,2.5,12.5,0.25,,2.5,1.25,
O=C(O)C1=C(Cc2cccc(C(=O)O)c2)CS[C@@H]2[C@H](NC(=O)[C@H](O)c3ccccc3)C(=O)N12 [XLIII],0.5,2,,8,,0.5,,8,,
"N[C@@H](C(=O)N[C@@H]1C(=O)N2C(C(=O)O)=C(Cc3ccc(C(=O)O)cc3)CS[C@H]12)c1ccc(O)cc1.O=C(O)C(F)(F)F [XVII, 3-(p-carboxybenzyl)-7β-(D-α-p-hydroxyphenylglycyl)aminoceph-3-em-4-carboxylic acid trifluoroacetic acid salt]",2.5,0.5,,2.5,,5,,5,5,
O=C(O)C1=C(Cc2ccc(C(=O)O)cc2)CS[C@@H]2[C@H](NC(=O)[C@H](O)c3ccccc3)C(=O)N12 [XV],0.25,0.25,,0.5,5,0.5,,5,,
"CN(C(=O)C=Cc1ccccc1)C(=O)N[C@@H](C(=O)N[C@@H]1C(=O)N2C(C(=O)O)=C(Cc3ccc(C(=O)O)cc3)CS[C@H]12)c1ccccc1 [XXI, 3-(p-Carboxybenzyl)-7β-[D-α-(3-cinnamoyl-3-methylureido)phenylacetamido]ceph-3-em-4-carboxylic acid]",2.5,0.12,5,5,,,5,12.5,,MIC (Enterobacter cloacae N1): 5 µg/mL; MIC (E. coli JT1; JT1): 12.5 µg/mL; MIC (Serratia marcescens US32): 5 µg/mL
NC(=O)N[C@H](Cc1c[nH]c2ccccc12)C(=O)N[C@@H](C(=O)N[C@@H]1C(=O)N2C(C(=O)O)=C(Cc3ccc(C(=O)O)cc3)CS[C@H]12)c1ccccc1 [XXVI],0.5,,5,12.5,5,,5,5,5,
"O=C(Cc1cccs1)N[C@@H]1C(=O)N2C(C(=O)O)=C(Cc3ccc(C(=O)O)cc3)CS[C@H]12 [XXX, 7β-(2-Thienylacetamido)-3-(p-carboxybenzyl)ceph-3-em-4-carboxylic acid]",0.1,0.5,,5,,1.2,,5,5,MIC (P. mirabilis 899): 2.5 µg/mL
"N[C@@H](C(=O)N[C@@H]1C(=O)N2C(C(=O)O)=C(Cc3cccc(C(=O)O)c3)CS[C@H]12)c1ccccc1 [m-carboxy isomer, 3-(m-Carboxybenzyl)-7β-(D-α-phenylglycyl)amino-ceph-3-em-4-carboxylic acid]",,,,,,,,,,concentration at 10 min [1]: 84000 ng/mL; concentration at 20 min [1]: 64000 ng/mL; concentration at 0.5 h [1]: 50000 ng/mL; concentration at 1 h [1]: 26000 ng/mL; concentration at 2 h [1]: 14000 ng/mL; concentration at 4 h [1]: 1600 ng/mL
"N[C@@H](C(=O)N[C@@H]1C(=O)N2C(C(=O)O)=C(Cc3ccccc3C(=O)O)CS[C@H]12)c1ccccc1 [o-carboxy isomer, 3-(o-Carboxybenzyl)-7β-(D-α-phenylglycyl)aminoceph-3-em-4-carboxylic acid]",,,,,,,,,,concentration at 10 min [1]: 63000 ng/mL; concentration at 20 min [1]: 66000 ng/mL; concentration at 0.5 h [1]: 58000 ng/mL; concentration at 1 h [1]: 49000 ng/mL; concentration at 2 h [1]: 41000 ng/mL; concentration at 4 h [1]: 31000 ng/mL
"N[C@@H](C(=O)N[C@@H]1C(=O)N2C(C(=O)O)=C(Cc3ccc(C(=O)O)cc3)CS[C@H]12)c1ccccc1 [p-carboxy isomer, 3-(p-Carboxybenzyl)-7β-(D-α-phenylglycyl)amino-ceph-3-em-4-carboxylic acid]",,,,,,,,,,concentration at 10 min [1]: 75000 ng/mL; concentration at 20 min [1]: 87000 ng/mL; concentration at 0.5 h [1]: 69000 ng/mL; concentration at 1 h [1]: 48000 ng/mL; concentration at 2 h [1]: 22000 ng/mL; concentration at 4 h [1]: 9300 ng/mL
